A word on the MRT: it is the average time that molecules of a dose stay in the body. Broadly, the AUC(0-inf) is total exposure, with the tail of the curve extrapolated. As usually defined, the IC50 is the concentration that gives 50% inhibition. The EC50 is the concentration at which the effect is half-maximal.

Like-named read-outs stand apart in the source and are kept apart here.

Data set [1] can be described thus: Pharmacokinetic study of GT in DcNPs compared to CrEL (Example 2), plasma G, T and dFdU. In kind it is in vivo, BALB/c mice. As to conditions: for concentration at 3 h / MRT / Vd / AUC(0-inf) / C0 / half-life: female, BALB/c, mouse, plasma; for concentration at 3 h: intravenous; for MRT: read-out: MRT (mean residence time); for Vd: read-out: Vss; for C0: read-out: C0 (concentration at time 0, back extrapolated); for time over which concentrations in plasma were detected: mice administered GT DcNPs, 48-hour study; for plasma concentration by 24 hours: mice treated with the CrEL control formulation; for half-life: read-out: T1/2,app (converted). An excerpt:
Drugs extracted from biological matrices such as plasma or tissue homogenates were quantified by a Shimadzu HPLC system coupled to a 3200 QTRAP mass spectrometer (Applied Biosystems, Grand Island, N.Y.). The HPLC system consisted of two Shimadzu LC-20A pumps, a DGU-20A5 degasser, and a Shimadzu SIL-20AC HT autosampler. The mass spectrometer was equipped with an electrospray ionization (ESI) TurbolonSpray source. The system was operated with Analyst software, version 1.5.2 (ABSciex, Framingham, Mass.). Chromatographic separation of G and T was achieved using a Synergi column (100×2.0 mm; 4-μm particle size) (Phenomenex, Torrance, Calif.) with an inline C8 guard column (4.0×2.0 mm) also from Phenomenex. The flow rate was set to 0.5 mL/min with a 5 μl sample injection volume. The mobile phase for separation consisted of pump A (20 mM Ammonium Acetate in water) and B (Reagent Alcohol). […] The needle was washed with isopropanol after each injection. Analytes were monitored using multiple-reaction monitoring (MRM) for positive ions.
Statistical comparisons were performed using 2-sided t-tests with Welch's correction for unequal variances. Significance probability α was set at 0.05. Pharmacokinetic parameters from non-compartmental analysis were calculated using the trapezoidal rule and relevant pharmacokinetic equations shown in Table 3.

Data set [2] has as its system MOLT-4 cells. Put plainly: AlamarBlue cell growth inhibition, MOLT-4. In kind it is cell-based. The settings on record: Homo sapiens, 120 h. The protocol: K-562 cells (human leukemia) were purchased from ATCC (Manassas, USA). Additional human leukemic cell lines, MOLT-4 and HL-60, were a generous gift from Carrie Cummings at Fred Hutchinson Cancer Research Center (Seattle, USA). All cells were cultured in Gibco RPMI medium 1640 with Gibco 1% 100×Antibiotic-Antimycotic (Thermo Fisher Scientific, Waltham, USA) and 10% fetal bovine serum. Cells were selected for their different protein expression levels of Bruton's Tyrosine Kinase (BTK) and B Cell Lymphoma 2 (Bcl-2); HL-60 cells express both BTK and Bcl-2, while K-562 and MOLT-4 cells only express BTK and Bcl-2, respectively.
Each cell line was seeded separately into Costar® Black 96-well Assay Plates (Corning USA). Within 1 hr, varying concentrations of individual free drug (ABT-199 or BGB-3111), a combination of both free drugs (w/w 1:1), or a combination of drugs within DcNP's were added to the cells. Following a 5-day incubation, growth of treated cells was compared to untreated cells, quantified using an AlamarBlue Cell Viability Assay (Thermo Fisher Scientific, Waltham, USA) with a PerkinElmer 1420 Multilabel Counter plate reader. Prism graphing software (GraphPad) was used to analyze the absorbance data and to assess relative cell growth.
The effects of DcNP formulation on the effectiveness of ABT-199 and BGB-3111 to inhibit cells that express Bcl-2 and BTK targets is shown in Table 6. Three immortalized human cell lines were selected based on their expression of Bcl-2 (B-cell lymphoma 2; target of venetoclax) and BTK (Bruton's tyrosine kinase; target of zanubrutinib). Cell lines were seeded in 96-well plates at 75,000 cells per well. In separate sets of wells, venetoclax and zanubrutinib were incubated with the cells for 5 days individually as free drug, together as free drug, and together as the drug combination nanoformulation. An AlamarBlue assay was performed to determine relative inhibition of cell growth due to drug presence.
(The colour change of resazurin is a common sign of viable cells or microbes.)

Data set [3] has as its system K-562 cells. Put plainly: Leukemic cell uptake of free versus DcNP-associated drug, K-562. In kind it is cell-based, human. How it is done:
FIGS. 13A-13D are a series of graphs showing the intracellular drug concentrations following incubation with free or DcNP-bound drug. Three leukemic cell lines were incubated with either free or DcNP-bound drug over four hours, and intracellular drug concentration was measured via LC-MS/MS. Both free drugs show relatively little drug uptake compared to the DcNP formulation. Free drug concentrations are roughly a quarter of the DcNP drug concentrations.
To quantify drug concentrations (both DcNP-bound and free drug), an extraction protocol was established to quantify venetoclax and zanubrutinib. In short, drug was solubilized by diluting the sample into ethyl acetate, liberating it from either the DcNP lipid matrix, mouse plasma, or both. Following centrifugation to remove organic material, the samples were dried with nitrogen gas, reconstituted in acetonitrile, and loaded onto an LC-MS/MS. Drug concentrations were quantified by comparing sample data with standard curves prepared from untreated mouse plasma spiked with known amounts of drug.
Separations were carried out on a Synergi column (100×2.0 mm) (Phenomenex, Torrance, USA). A C8 guard column (4.0×2.0 mm) was used (Phenomenex, USA). The separations were done under ambient temperature, and the flow rate was set to 0.55 ml/min. The mobile phase for the separations consisted of buffers A (water with 20 mM ammonium acetate) and B (acetonitrile). The single mobile phase ran for five minutes, and it consisted of 25% buffer A and 75% buffer B.
HL-60 cells were cultured, counted, and aliquoted into multiple 1.5 mL Eppendorf tubes. A free drug solution of ABT-199 and BGB-3111 (1:1 w/w) was added to half of the tubes, while a DcNP solution of identical drug concentrations was added to the second half of tubes. The cells in the tubes were then allowed to incubate normally. At preselected time points, one incubation tube from each group was removed from the incubator, and the cells inside were washed twice with media to remove external drug and DcNP's. Cells were then lysed with acetonitrile, and drug concentrations were quantified according to the aforementioned extraction and LC-MS/MS protocol.

[4] abbreviates: Control (CrEL suspension), 50/5 mg/kg G/T IV, mice.
Where [5] appears, read: GT DcNP, 50/5 mg/kg G/T IV, mice.
Setting [6] is: after GT DcNP dosing, 50/5 mg/kg G/T IV, mice.
The mark [7] stands for this setting: after control CrEL dosing, 50/5 mg/kg G/T IV, mice.
The mark [8] stands for this setting: iv, 5 mg/kg, Control (CrEL suspension), 50/5 mg/kg G/T IV, mice.
The mark [9] stands for this setting: iv, 5 mg/kg, GT DcNP, 50/5 mg/kg G/T IV, mice.
[10] abbreviates: iv, Control (CrEL suspension), 50/5 mg/kg G/T IV, mice.
Where [11] appears, read: iv, GT DcNP, 50/5 mg/kg G/T IV, mice.
Where [12] appears, read: iv, 50 mg/kg, Control (CrEL suspension), 50/5 mg/kg G/T IV, mice.
Where [13] appears, read: iv, 50 mg/kg, GT DcNP, 50/5 mg/kg G/T IV, mice.

Turning to `CC(=O)O[C@H]1C(=O)[C@@]2(C)[C@H]([C@H](OC(=O)c3ccccc3)[C@]3(O)C[C@H](OC(=O)[C@H](O)[C@@H](NC(=O)c4ccccc4)c4ccccc4)C(C)=C1C3(C)C)[C@]1(OC(C)=O)CO[C@@H]1C[C@@H]2O` [Paclitaxel, [(1S,2S,3R,4S,7R,9S,10S,12R,15S)-4,12-diacetyloxy-15-[(2R,3S)-3-benzamido-2-hydroxy-3-phenylpropanoyl]oxy-1,9-dihydroxy-10,14,17,17-tetramethyl-11-oxo-6-oxatetracyclo[11.3.1.0^3,10.0^4,7]heptadec-13-en-2-yl] benzoate], the “plasma concentration at 3 hours, DcNP times greater than CrEL” value in data set [1] (50/5 mg/kg G/T IV, mice) is 3.3 times. For the same compound, in data set [1] (setting [4]), the “Dose/AUC (apparent clearance)” value is 38.3 mL/h and the “T1/2,app” value amounted to 1.8 h. In data set [1] (setting [5]), the “Dose/AUC (apparent clearance)” value turned out to be 10.2 mL/h and the “T1/2,app” value worked out at 2.0 h. Moreover, in data set [1] (setting [6]), the concentration at 3 h worked out at 643 ng/mL. Also, the concentration at 3 h in data set [1] (setting [7]) came to 194 ng/mL. In data set [1] (setting [8]), the mean residence time MRT worked out at 1 h and the Vd was 0.0356 L. Besides, in data set [1] (setting [9]), the MRT turned out to be 1 h and the Vd worked out at 0.01 L. Further, in data set [1] (setting [10]), the area under the curve AUC(0-inf) is 2610 ng·h/mL and the C0 was 17700 ng/mL. Besides, in data set [1] (setting [11]), the total exposure AUC(0-inf) was 9810 ng·h/mL and the C0 is 13900 ng/mL. For the same compound, in data set [1], the “time over which concentrations in plasma were detected” value is at most 6 h and the “plasma concentration by 24 hours” value is listed as “fell below the detection limit”.

For `C=CC(=O)N1CCC([C@@H]2CCNc3c(C(N)=O)c(-c4ccc(Oc5ccccc5)cc4)nn32)CC1` [Zanubrutinib, (7S)-2-(4-phenoxyphenyl)-7-(1-prop-2-enoylpiperidin-4-yl)-4,5,6,7-tetrahydropyrazolo[1,5-a]pyrimidine-3-carboxamide], in data set [2] (MOLT-4, five days, read-out: IC50 (sensitivity)), the half-maximal inhibitory concentration (IC50) is 4 µg/mL. In addition, the EC50 in data set [2] (Molt-4 (Bcl-2 +, BTK −), 5 days, read-out: Inhibitory effects (EC50)) amounted to 4 µg/mL. The “peak intracellular drug concentration” value in data set [3] (K-562, incubation with DcNP's) was 647 ng/million cells; in data set [3] (K-562, incubation with free drug), 109 ng/million cells.

In the case of `Nc1ccn([C@@H]2O[C@H](CO)[C@@H](O)C2(F)F)c(=O)n1` [Gemcitabine, 4-amino-1-[(2R,4R,5R)-3,3-difluoro-4-hydroxy-5-(hydroxymethyl)oxolan-2-yl]pyrimidin-2-one], in data set [1] (50/5 mg/kg G/T IV, mice), the “AUC0 to ∞ Ratio (DcNP to control)” value worked out at 61.0, the “C0 Ratio (DcNP to control)” value is reported as 1.1, the “Dose/AUC Ratio (DcNP to control)” value came out at 0.02 and the “MRT Ratio (DcNP to control)” value was 45.2. In addition, in data set [1] (50/5 mg/kg G/T IV, mice), the “T1/2,app Ratio (DcNP to control)” value is on record as 8.6; the “Vss Ratio (DcNP to control)” value is listed as 0.7; the “plasma concentration at 3 hours, DcNP times greater than CrEL” value is listed as 470 times. The “AUC0 to ∞ Ratio (DcNP to control)” value in data set [1] (50/5 mg/kg G/T IV, mice, listed as G) stood at 61. Moreover, in data set [1] (50/5 mg/kg G/T IV, mice, listed as gemcitabine), the “AUC0 to ∞ Ratio (DcNP to control)” value is 50. Besides, the “Dose/AUC (apparent clearance)” value in data set [1] (setting [4]) amounted to 65.2 mL/h. Also, in data set [1] (CrEL control dosage form), the “G to dFdU ratio in plasma at 6 hours” value is 0.01. Further, the “difference in mean residence times of G and T after DcNP administration” value in data set [1] (GT DcNP) stood at 11.3 fold. Moreover, the “Dose/AUC (apparent clearance)” value in data set [1] (setting [5]) stood at 1.1 mL/h. Moreover, in data set [1] (after GT in CrEL control dosage form IV, mice), the “plasma concentration within 15 minutes” value was found to be 12023.5 ng/mL. In addition, the “mean plasma concentration at 3 hours” value in data set [1] (after control CrEL dosing, 50/5 mg/kg G/T IV, mice, listed as G) amounted to 87.3 ng/mL. Also, the mean residence time MRT in data set [1] (50 mg/kg, Control (CrEL suspension), 50/5 mg/kg G/T IV, mice) was 0.25 h. For the same compound, the concentration at 3 h in data set [1] (setting [6]) is 41100 ng/mL. Besides, the concentration at 3 h in data set [1] (setting [7]) came out at 87.3 ng/mL. In data set [1] (setting [12]), the total exposure AUC(0-inf) was 15300 ng·h/mL, the C0 is 165000 ng/mL, the half-life was 1.6 h and the Vd stood at 0.0166 L. Also, in data set [1] (setting [13]), the total exposure AUC(0-inf) was 937000 ng·h/mL, the C0 was 181000 ng/mL, the MRT is 11.3 h and the half-life was 13.7 h. The Vd in data set [1] (setting [13]) came to 0.0121 L. Further, the half-life in data set [1] (setting [11]) is 13.7 h. For the same compound, in data set [1], the “time over which concentrations in plasma were detected” value is at least 48 h and the “plasma concentration by 24 hours” value is on record as “fell below the detection limit”.

Values taken from patent US20230113802A1, “COMPOSITION AND METHOD TO PREPARE LONG-ACTING INJECTABLE SUSPENSION CONTAINING MULTIPLE CANCER DRUGS” (University of Washington, priority 2020, published 2023).
